How the values were obtained:
Test in all cases: relative viability (nuclei count vs DMSO), 5 days (fraction); higher = more cells survive
PAC-1 + Phenformin = compound: C=CCc1cccc(/C=N/NC(=O)CN2CCN(Cc3ccccc3)CC2)c1O [PAC-1] + N=C(N)NC(=N)NCCc1ccccc1 [Phenformin] (partner 250 µM)
Method in brief: (§1)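 Lung cancer cell lines in 1536-well plates got either a single drug or a fixed anchor-drug dose together with five library-drug doses (not always all listed) in √10 steps, by pin tool, on the day after seeding. Nuclei were counted after 5 days, and relative viability is the treated-to-vehicle ratio of nuclei counts. Values are medians of duplicate plates.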

BMX-IN-1 + Bortezomib = compound: C=CC(=O)Nc1cc(-n2c(=O)ccc3cnc4ccc(-c5ccc(NS(C)(=O)=O)cc5)cc4c32)ccc1C [BMX-IN-1] + CC(C)C[C@H](NC(=O)[C@H](Cc1ccccc1)NC(=O)c1cnccn1)B(O)O [Bortezomib] (partner 0.002 µM)
Method in brief: as §1

PAC-1 + OSI-027 = compound: C=CCc1cccc(/C=N/NC(=O)CN2CCN(Cc3ccccc3)CC2)c1O [PAC-1] + COc1cccc2cc(-c3nc([C@H]4CC[C@H](C(=O)O)CC4)n4ncnc(N)c34)[nH]c12 [OSI-027] (partner 0.5 µM)
Method in brief: as §1

BMX-IN-1 + AZD7762 = compound: C=CC(=O)Nc1cc(-n2c(=O)ccc3cnc4ccc(-c5ccc(NS(C)(=O)=O)cc5)cc4c32)ccc1C [BMX-IN-1] + NC(=O)Nc1cc(-c2cccc(F)c2)sc1C(=O)N[C@H]1CCCNC1 [AZD7762] (partner 0.2 µM)
Method in brief: as §1

PAC-1 + Crizotinib = compound: C=CCc1cccc(/C=N/NC(=O)CN2CCN(Cc3ccccc3)CC2)c1O [PAC-1] + C[C@@H](Oc1cc(-c2cnn(C3CCNCC3)c2)cnc1N)c1c(Cl)ccc(F)c1Cl [Crizotinib] (partner 1 µM)
Method in brief: as §1

Row | Cell Line | relative viability (PAC-1 + Phenformin; first compound 0.02 µM) | relative viability (PAC-1 + Phenformin; first compound 0.06325 µM) | relative viability (PAC-1 + Phenformin; first compound 0.2 µM) | relative viability (PAC-1 + Phenformin; first compound 2 µM) | relative viability (BMX-IN-1 + Bortezomib; first compound 0.02 µM) | relative viability (BMX-IN-1 + Bortezomib; first compound 0.2 µM) | relative viability (BMX-IN-1 + Bortezomib; first compound 0.6325 µM) | relative viability (BMX-IN-1 + Bortezomib; first compound 2 µM) | relative viability (PAC-1 + OSI-027; first compound 0.02 µM) | relative viability (PAC-1 + OSI-027; first compound 0.06325 µM) | relative viability (PAC-1 + OSI-027; first compound 0.2 µM) | relative viability (PAC-1 + OSI-027; first compound 2 µM) | relative viability (BMX-IN-1 + AZD7762; first compound 0.02 µM) | relative viability (BMX-IN-1 + AZD7762; first compound 0.2 µM) | relative viability (BMX-IN-1 + AZD7762; first compound 0.6325 µM) | relative viability (BMX-IN-1 + AZD7762; first compound 2 µM) | relative viability (PAC-1 + Crizotinib; first compound 0.02 µM) | relative viability (PAC-1 + Crizotinib; first compound 0.06325 µM) | relative viability (PAC-1 + Crizotinib; first compound 0.2 µM) | relative viability (PAC-1 + Crizotinib; first compound 2 µM)
1 | HCC-44 | 0.184 | 0.18 | 0.17 | 0.131 | 0.902 | 1.06 | 1.07 | 0.957 | 0.486 | 0.62 | 0.607 | 0.585 | 0.989 | 0.941 | 1.01 | 1.11 | 0.809 | 0.797 | 0.807 | 0.772
2 | HCC-78 | 0.8 | 0.639 | 0.809 | 0.759 | 0.534 | 0.474 | 0.432 | 0.546 | 0.336 | 0.335 | 0.376 | 0.396 | 0.662 | 0.64 | 0.587 | 0.726 | 0.343 | 0.34 | 0.362 | 0.337
3 | HCC-366 | 0.612 | 0.634 | 0.595 | 0.655 | 1.88 | 1.78 | 1.28 | 1.09 | 0.946 | 0.863 | 0.894 | 1.26 | 0.38 | 0.417 | 0.416 | 0.343 | 0.542 | 0.479 | 0.454 | 0.591
4 | HCC-827 | 0.383 | 0.402 | 0.368 | 0.4 | 1.11 | 1.09 | 1.16 | 1.11 | 0.763 | 0.692 | 0.703 | 0.792 | 0.217 | 0.207 | 0.251 | 0.194 | 0.982 | 0.943 | 0.875 | 0.889
5 | HOP-62 | 0.692 | 0.541 | 0.585 | 0.647 | 0.934 | 0.851 | 0.769 | 0.6 | 0.836 | 0.814 | 0.782 | 0.892 | 0.606 | 0.627 | 0.724 | 0.65 | 0.844 | 1.01 | 1.02 | 0.954
6 | LC-2-ad | 0.609 | 0.654 | 0.573 | 0.512 | 1.02 | 1.28 | 1.01 | 1.04 | 0.877 | 1.05 | 0.78 | 0.64 | 0.982 | 1.09 | 0.924 | 0.867 | 0.383 | 0.436 | 0.443 | 0.398
7 | LCLC-97TM1 | 0.507 | 0.456 | 0.424 | 0.427 | 0.332 | 0.562 | 0.629 | 0.505 | 0.436 | 0.536 | 0.453 | 0.449 | 0.235 | 0.239 | 0.327 | 0.202 | – | 0.252 | 0.358 | 0.298
8 | LCLC-103H | 0.347 | 0.322 | 0.365 | 0.341 | 1.11 | 0.972 | 1.25 | 0.932 | 0.45 | 0.467 | 0.436 | 0.559 | 0.824 | 0.887 | 0.773 | 0.82 | 1.07 | 1.15 | 0.974 | 1.02
9 | LOU-NH91 | 0.713 | 0.695 | 0.668 | 0.798 | – | 0.512 | 0.459 | 0.49 | 0.643 | 0.68 | 0.727 | 0.715 | – | 0.806 | 0.865 | 0.753 | 0.747 | 0.762 | 0.723 | 0.728
10 | LU99A | 0.824 | 0.761 | 0.908 | 0.874 | 1.2 | 1.18 | 1.2 | 1.12 | 0.303 | 0.314 | 0.257 | 0.3 | 0.393 | 0.416 | 0.415 | 0.288 | 0.618 | 0.581 | 0.515 | 0.544
11 | LXF-289 | 0.52 | 0.53 | 0.501 | 0.511 | 1.09 | 1.16 | 1.11 | 1.05 | 0.764 | 0.835 | 0.739 | 0.789 | 1.25 | 1.18 | 1.22 | 1.27 | 0.833 | 0.807 | 0.789 | 0.835
12 | NCI-H23 | 0.788 | 0.814 | 0.713 | 0.815 | 1.23 | 1.46 | 1.18 | 1.06 | 0.629 | 0.493 | 0.589 | 0.65 | 0.211 | 0.272 | 0.18 | 0.25 | 0.481 | 0.396 | 0.489 | 0.535
13 | NCI-H322M | 0.716 | 0.819 | 0.776 | 0.762 | 1.33 | 1.25 | 1.2 | 1.36 | 0.547 | 0.586 | 0.543 | 0.505 | 0.532 | 0.559 | 0.714 | 0.485 | 0.792 | 0.839 | 0.877 | 0.854
14 | NCI-H441 | 0.881 | 0.993 | 0.705 | 0.752 | 0.483 | 0.517 | 0.483 | 0.27 | 0.521 | 0.759 | 0.501 | 0.413 | 1.12 | 1.03 | 0.997 | 1.39 | 0.725 | 0.77 | 0.714 | 0.655
15 | NCI-H460 | 0.503 | 0.528 | 0.483 | 0.575 | 1.94 | – | 1.29 | 1.03 | 0.582 | 0.727 | 0.626 | 0.637 | 0.725 | 0.566 | 0.768 | 0.735 | 0.887 | 0.805 | 0.823 | 1.07
16 | NCI-H596 | 0.739 | 1.03 | 0.783 | 0.785 | 0.9 | 1.28 | 1.31 | 0.988 | 0.733 | 0.745 | 0.695 | 0.719 | 1.07 | 1.36 | 1.23 | 1.04 | 0.974 | 0.952 | 0.98 | 1.07

Source: the supplement of paper PMC10307832
